Experimental data published in patent publication US20030108622A1, “Cancer treatment composition and method using signal transduction modulators and natural plant essential oils as synergists for conventional treatments” (EcoSMART Technologies, Inc., priority 1998, published 2003).

Experiments:
Format in all cases: cell-based, human
[1] = test system: MCF-7 cells; test: Cell growth without E2, 5 days, cell count using trypan blue exclusion (Examples 5-7); conditions: mixtures with TX; conclusion from the Examples, FIGS. 6-9
Method: MCF-7 cells were cultured in growth DMEM medium supplemented with 10% fetal bovine serum (FBS). At 85% confluence, cells were sub-cultured in 5% FBS serum stripped medium, phenol red free for 24 hours prior to the treatment of the test chemical. Cells were treated with and without a mixture of either 5 μM FK […] and 1 μM TX (=0.56 ug TX/ml) or a mixture of 1 μM TX (=0.56 ug TX/ml) and 1 μM FK. Cell growth was measured 5 days following treatment. Cell growth was determined by cell count using trypan blue exclusion. The study was done in duplicate and a control was used with solvent only. Control received solvent only at <0.1% ethanol.
MCF-7 cells were cultured in growth DMEM medium supplemented with 10% fetal bovine serum (FBS). At 85% confluence, cells were sub-cultured in 5% FBS serum stripped medium, phenol red free for 24 hours prior to the treatment of the test chemical. Cells were treated with and without a mixture of either 5 ng GM/ml and 5 μM TX (=2.8 ug TX/ml) or a mixture of 10 ng GM/ml and 5 μM TX (=2.8 ug TX/ml). Cell growth was measured 5 days following treatment. Cell growth was determined by cell count using trypan blue exclusion. […]
MCF-7 cells were cultured in growth DMEM medium supplemented with 10% fetal bovine serum (FBS). […] Cell growth was measured 5 days following treatment. Cell growth was determined by cell count using trypan blue exclusion. […]

[2] = test system: MCF-7 cells; test: Time-course of E2-induced cell growth, cell count using trypan blue exclusion (Example 4); conditions: TX 1 μM alone + E2 10 nM; calculated on control value, FIG. 4
Method: Effect of cAMP Inducer on Efficacy and Stability of Tamoxifen MCF-7 cells were cultured in growth DMEM medium supplemented with 10% fetal bovine serum (FBS). At 85% confluence, cells were sub-cultured in 5% FBS serum stripped medium, phenol red free for 24 hours prior to the treatment of the test chemical. Cells were treated with 10 nM E2 (=2.7 ng E2/ml) with and without a mixture of 1 μM FK and 1 μM TX. Cell growth was measured 1, 2 and 5 days following treatment. Cell growth was determined by cell count using trypan blue exclusion. The study was done in duplicate and a control was used with solvent only. Control received solvent only at <. 1% ethanol.

[3] = test system: MCF-7 cells; test: Dose-response of tamoxifen on E2-induced cell proliferation, 3H-thymidine incorporation (Example 1)
Method: Dose-Response of Tamoxifen on Estrogen (E2)-Induced Cell Proliferation MCF-7 cells were cultured in growth DMEM medium supplemented with 10% fetal bovine serum (FBS). […] […] Cell proliferation was measured using ^3H-thymidine incorporation. The study was done in triplicate and a control was used with solvent only. Control received solvent only at <0.1% ethanol.
In Table 1, percentage of control is calculated either based on the control (solvent only, ethanol 0.1%) or based on the E2 values which is between parenthesis.

[4] = test system: MCF-7 cells; test: Effect of FK or GM on TX efficacy against E2-induced cell proliferation, 3H-thymidine incorporation (Example 3)
Method: In another experiment cells were treated with 10 nM E2 (=2.7 ng E2/ml) with three concentraion of GM (1, 5 and 10 ng/ml) 24 hours prior to cell proliferation assessment. Tamoxifen (TX) was used in parallel as positive control. Cell proliferation was measured using ^3H-thymidine incorporation. The study was done in triplicate and a control was used with solvent only. Control received solvent only at <0.1% ethanol.

[5] = test system: MCF-7 cells; test: Dose-response of signal transduction modulators on E2-induced cell proliferation, 3H-thymidine incorporation (Example 2)
Method: Dose-response of Signal Transduction Modulators on E2-Induced Cell Proliferation To determine the impact of two key signaling proteins, cAMP/PKA system and tyrosine kinase family member, c-Src kinase (p^src60) on estrogen-induced cell proliferation in human epithelial breast cancer cells, MCF-7 cells were cultured in growth DMEM medium supplemented with 10% fetal bovine serum (FBS). At 85% confluence, cells were sub-cultured in 5% FBS serum stripped medium, phenol red free for 24 hours prior to the treatment of the test chemical. […] Tamoxifen (TX) was used in parallel as positive control. Cell proliferation was measured using ^3H-thymidine incorporation. The study was done in triplicate and a control was used with solvent only. Control received solvent only at <0.1% ethanol.

[6] = TX 5 μM + E2 10 nM, based on solvent control
[7] = TX 5 μM + E2 10 nM, value in parenthesis, based on E2 value
[8] = TX 10 μM + E2 10 nM, based on solvent control

**Q.** With `COc1cccc(-c2cc(=O)c3ccccc3o2)c1N` [PD98059] as the compound, how does the “synergy with the anticancer activity of tamoxifen in breast cancer cells” value [1] read?
**A.** synergize the anticancer activity of tamoxifen

**Q.** `CC/C(=C(\c1ccccc1)c1ccc(OCCN(C)C)cc1)c1ccccc1` [TX, tamoxifen] was tested. Which “time over which the E2 action is antagonized” value [2] did it give?
**A.** up to 48 hr

**Q.** What about the activity at 1 µM ([3]; Homo sapiens, MCF7, TX 1 μM, without E2, based on solvent control) of the same compound?
**A.** 42%

**Q.** What about the activity at 5 µM ([3]; Homo sapiens, MCF7, TX 5 μM, without E2, based on solvent control) of the same compound?
**A.** 36%

**Q.** What about the activity at 10 µM ([3]; Homo sapiens, MCF7, TX 10 μM, without E2, based on solvent control) of the same compound?
**A.** 33%

**Q.** And the 3H-thymidine incorporation dpm ([3]; TX 1 μM + E2 10 nM)?
**A.** 12336 dpm

**Q.** What about the “3H-thymidine incorporation dpm/μg protein” value ([3]; TX 1 μM + E2 10 nM) of the same compound?
**A.** 379.6 dpm/μg protein

**Q.** And the “3H-thymidine incorporation % of control” value ([3]; TX 1 μM + E2 10 nM, based on solvent control)?
**A.** 124%

**Q.** And the “% protection (based on E2 value)” value ([3]; TX 1 μM + E2 10 nM, value in parenthesis, based on E2 value)?
**A.** (21) %

**Q.** What about the 3H-thymidine incorporation dpm ([3]; TX 1 μM, without E2) of the same compound?
**A.** 2586 dpm

**Q.** And the “3H-thymidine incorporation dpm/μg protein” value ([3]; TX 1 μM, without E2)?
**A.** 129.3 dpm/μg protein

**Q.** And the “% protection” value ([3]; TX 1 μM, without E2)?
**A.** 58%

**Q.** What about the 3H-thymidine incorporation dpm ([3]; TX 5 μM + E2 10 nM) of the same compound?
**A.** 4007 dpm

**Q.** What about the “3H-thymidine incorporation dpm/μg protein” value ([3]; TX 5 μM + E2 10 nM) of the same compound?
**A.** 260.2 dpm/μg protein

**Q.** And the “3H-thymidine incorporation % of control” value [3, 6]?
**A.** 85%

**Q.** And the “% protection” value [3, 6]?
**A.** 15%

**Q.** What about the “3H-thymidine incorporation % of control (based on E2 value)” value [3, 7] of the same compound?
**A.** 53%

**Q.** What about the “% protection (based on E2 value)” value [3, 7] of the same compound?
**A.** 47%

**Q.** And the 3H-thymidine incorporation dpm ([3]; TX 5 μM, without E2)?
**A.** 1848 dpm

**Q.** What about the “3H-thymidine incorporation dpm/μg protein” value ([3]; TX 5 μM, without E2) of the same compound?
**A.** 112.0 dpm/μg protein

**Q.** And the “% protection” value ([3]; TX 5 μM, without E2)?
**A.** 64%

**Q.** And the 3H-thymidine incorporation dpm ([3]; TX 10 μM + E2 10 nM)?
**A.** 3239 dpm

**Q.** And the “3H-thymidine incorporation dpm/μg protein” value ([3]; TX 10 μM + E2 10 nM)?
**A.** 118.5 dpm/μg protein

**Q.** And the “3H-thymidine incorporation % of control” value [3, 8]?
**A.** 39%

**Q.** What about the “% protection” value [3, 8] of the same compound?
**A.** 61%

**Q.** What about the “% protection (based on E2 value)” value ([3]; TX 10 μM + E2 10 nM, value in parenthesis, based on E2 value) of the same compound?
**A.** 75%

**Q.** What about the 3H-thymidine incorporation dpm ([3]; TX 10 μM, without E2) of the same compound?
**A.** 1545 dpm

**Q.** What about the “3H-thymidine incorporation dpm/μg protein” value ([3]; TX 10 μM, without E2) of the same compound?
**A.** 99.8 dpm/μg protein

**Q.** What about the “% protection” value ([3]; TX 10 μM, without E2) of the same compound?
**A.** 67%

**Q.** And the “antagonistic action against the E2-induced cell proliferation” value ([3]; TX 1-10 μM, Table 1)?
**A.** dose-dependent

**Q.** What about the “potency against the E2-induced cell proliferation” value ([3]; low concentrations 0.56 ug/ml to 2.8 ug/ml (=1 - 5 μM)) of the same compound?
**A.** potent

**Q.** And the “protection against the biological activity of E2” value ([4]; 1 μM TX alone, FIG. 2)?
**A.** ~25%

**Q.** And the “protection against the E2-induced cancer cell growth” value ([4]; 5 μM TX alone, FIG. 2)?
**A.** 45%

**Q.** And the activity at 5 µM ([4]; Homo sapiens, MCF7, Table 4: 5 μM TX + E2, E2 10 nM = 100, read-out: 3H-Thymidine incorporation/μg protein (% of control))?
**A.** 54%

**Q.** And the “% protection” value ([4]; Table 4: 5 μM TX + E2 (TX alone))?
**A.** 46%

**Q.** And the antiestrogenic action ([5]; 1-10 μM, Table 2)?
**A.** dose-dependent

**Q.** And the activity at 1 µM ([5]; Homo sapiens, MCF7, TX 1 μM in the presence of 10 nM E2, read-out: 3H-Thymidine incorporation/μg protein (% of control))?
**A.** 79%

**Q.** And the activity at 5 µM ([5]; Homo sapiens, MCF7, TX 5 μM in the presence of 10 nM E2, read-out: 3H-Thymidine incorporation/μg protein (% of control))?
**A.** 54%

**Q.** What about the activity at 10 µM ([5]; Homo sapiens, MCF7, TX 10 μM in the presence of 10 nM E2, read-out: 3H-Thymidine incorporation/μg protein (% of control)) of the same compound?
**A.** 25%

**Q.** And the “% protection” value ([5]; TX 1 μM in the presence of 10 nM E2)?
**A.** 21%

**Q.** What about the “% protection” value ([5]; TX 5 μM in the presence of 10 nM E2) of the same compound?
**A.** 46%

**Q.** And the “% protection” value ([5]; TX 10 μM in the presence of 10 nM E2)?
**A.** 75%

**Q.** `COC1=C2C[C@@H](C)C[C@H](OC)[C@H](O)[C@@H](C)/C=C(\C)[C@H](OC(N)=O)[C@@H](OC)/C=C\C=C(/C)C(=O)NC(=CC1=O)C2=O` [GM, geldanamycin] was tested. Which activity at 0.001 µg/mL ([4]; Homo sapiens, MCF7, Table 4: GM 1 ng/ml, E2 10 nM = 100, read-out: 3H-Thymidine incorporation/μg protein (% of control)) did it give?
**A.** 100%

**Q.** And the activity at 0.005 µg/mL ([4]; Homo sapiens, MCF7, Table 4: GM 5 ng/ml, E2 10 nM = 100, read-out: 3H-Thymidine incorporation/μg protein (% of control))?
**A.** 100%

**Q.** And the activity at 0.01 µg/mL ([4]; Homo sapiens, MCF7, Table 4: GM 10 ng/ml, E2 10 nM = 100, read-out: 3H-Thymidine incorporation/μg protein (% of control))?
**A.** 90%

**Q.** What about the “% protection” value ([4]; Table 4: GM 1 ng/ml, E2 10 nM = 100) of the same compound?
**A.** 0%

**Q.** What about the “% protection” value ([4]; Table 4: GM 5 ng/ml, E2 10 nM = 100) of the same compound?
**A.** 0%

**Q.** And the “% protection” value ([4]; Table 4: GM 10 ng/ml, E2 10 nM = 100)?
**A.** 10%

**Q.** And the “3H-Thymidine incorporation/μg protein (% of control)” value ([5]; GM 1 ng/ml in the presence of 10 nM E2)?
**A.** no effect

**Q.** What about the “3H-Thymidine incorporation/μg protein (% of control)” value ([5]; GM 5 ng/ml in the presence of 10 nM E2) of the same compound?
**A.** no effect

**Q.** And the “inhibition of the E2-induced cell proliferation” value ([5]; GM 10 ng/ml)?
**A.** did not inhibit

**Q.** And the “% protection” value ([5]; GM 10 ng/ml in the presence of 10 nM E2)?
**A.** 6%

**Q.** What about the activity at 0.01 µg/mL ([5]; Homo sapiens, MCF7, GM 10 ng/ml in the presence of 10 nM E2, read-out: 3H-Thymidine incorporation/μg protein (% of control)) of the same compound?
**A.** 94%

**Q.** For `C=C[C@@]1(C)CC(=O)[C@]2(O)[C@@]3(C)[C@@H](O)CCC(C)(C)[C@@H]3[C@H](O)[C@H](OC(C)=O)[C@@]2(C)O1` [FK, forskolin], which “% protection” value ([5]; FK 1 μM in the presence of 10 nM E2) is on record?
**A.** 66%

**Q.** What about the “% protection” value ([5]; FK 5 μM in the presence of 10 nM E2) of the same compound?
**A.** 78%

**Q.** What about the “% protection” value ([5]; FK 10 μM in the presence of 10 nM E2) of the same compound?
**A.** 86%

**Q.** What about the activity at 1 µM ([5]; Homo sapiens, MCF7, FK 1 μM in the presence of 10 nM E2, read-out: 3H-Thymidine incorporation/μg protein (% of control)) of the same compound?
**A.** 34%

**Q.** And the activity at 5 µM ([5]; Homo sapiens, MCF7, FK 5 μM in the presence of 10 nM E2, read-out: 3H-Thymidine incorporation/μg protein (% of control))?
**A.** 22%

**Q.** What about the activity at 10 µM ([5]; Homo sapiens, MCF7, FK 10 μM in the presence of 10 nM E2, read-out: 3H-Thymidine incorporation/μg protein (% of control)) of the same compound?
**A.** 14%
